# Measurements reported in patent US20040023884A1, “Biologically active peptides from functional domains of bactericidal/permeability-increasing protein and uses thereof” (priority 1993, published 2004).
# Square brackets hold non-standard residues; d marks the D form. Ends that are not written are not given here. 1Nal = N[C@@H](Cc1cccc2ccccc12)C(=O)O
# B1: rBPI: recombinant BPI holoprotein (SEQ ID NO:69) (protein)
# chain: MRENMARGPCNAPRWVSLMVLVAIGTAVTAAVNPGVVVRISQKGLDYASQQGTAALQKELKRIKIPDYSDSFKIKHLGKGHYSFYSMDIREFQLPSSQISMVPNVGLKFSISNANIKISGKWKAQKRFLKMSGNFDLSIEGMSISADLKLGSNPTSGKPTITCSSCSSHINSVHVHISKSKVGWLIQLFHKKIESALRNKMNSQVCEKVTNSVSSKLQPYFQTLPVMTKIDSVAGINYGLVAPPATTAETLDVQMKGEFYSENHHNPPPFAPPVMEFPAAHDRMVYLGLSDYFFNTAGLVYQEAGVLKMTLRDDMIPKESKFRLTTKFFGTFLPEVAKKFPNMKIQIHVSASTPPHLSVQPTGLTFYPAVDVQAFAVLPNSSLASLFLIGMHTTGSMEVSAESNRLVGELKLDRLLLELKHSNIGPFPVELLQDIMNYIVPILVLPRVNEKLQKGFPLPTPARVQLYNVVLQPHQNFLLFGADVVYK
# B2: rLBP25: LBP amino-terminal fragment, first 197 amino acids of lipopolysaccharide binding protein (protein)
# chain: MGALARALPSILLALLLTSTPEALGANPGLVARITDKGLQYAAQEGLLALQSELLRITLPDFTGDLRIPHVGRGRYEFHSLNIHSCELLHSALRPVPGQGLSLSISDSSIRVQGRWKVRKSFFKLQGSFDVSVKGISISVNLLLGSESSGRPTVTASSCSSDIADVEVDMSGDLGWLLNLFHNQIESKFQKVLESRICEMIQKSVSSDLQPYLQTLPVTTEIDSFADIDYSLVEAPRATAQMLEVMFKGEIFHRNHRSPVTLLAAVMSLPEEHNKMVYFAISDYVFNTASLVYHEEGYLNFSITDEMIPPDSNIRLTTKSFRPFVPRLARLYPNMNLELQGSVPSAPLLNFSPGNLSVDPYMEIDAFVLLPSSSKEPVFRLSVATNVSATLTFNTSKITGFLKPGKVKVELKESKVGLFNAELLEALLNYYILNTFYPKFNDKLAEGFPLPLLKRVQLYDLGLQIHKDFLFLGANVQYMRV
# Tests used:
# [1] = system: rough mutant E. coli J5 bacteria; assay: Radial diffusion bactericidal assay, E. coli J5; assay type: cell-based; conditions: radial diffusion; for bactericidal activity (in words): E. coli J5; for pmol added to well to achieve a 30 mm^2 bactericidal zone, E. coli J5: PROBIT analysis, E. coli J5 (rough)
# Outline: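 Log-phase bacteria (3 h at 37 °C in tryptic soy broth), washed in 10 mM sodium phosphate pH 7.4, were embedded at 4×10^6 CFU/mL in underlayer agarose. BPI proteolytic fragments (5 or 10 μL) went into 3 mm wells for 3 h at 37 °C, then agarose overlay and overnight 37 °C growth. Clear zones were measured by micrometer.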
# [2] = 3H-heparin binding assay (affinity and capacity); conditions: for Heparin Capacity: heparin bound at saturation; for Kd: read-out: Heparin Affinity
# Outline: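 Peptide fragments were bound to PVDF-membrane wells and incubated with 3H-heparin in blocking buffer for 1 h at 4 °C. After washing, bound radioactivity was quantified by liquid scintillation counting, with BSA background subtracted; rBPI23 served as positive control.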
# [3] = system: E. coli 0111:B4 (smooth) bacteria; assay: Radial diffusion bactericidal assay, E. coli 0111:B4; assay type: cell-based; conditions: radial diffusion; PROBIT analysis; E. coli O111:B4 (smooth)
# [4] = system: Staphylococcus aureus; assay: Radial diffusion bactericidal assay, Staphylococcus aureus; assay type: cell-based; conditions: radial diffusion; PROBIT analysis; S. aureus
# [5] = In vitro heparin-mediated lengthening of APTT / clotting time of heparinized plasma; assay type: biochemical, human; conditions: FIG. 12g
# Procedure: In vitro, the effect of BPI combination functional domain peptides was determined on heparin-mediated lengthening of activated partial […] (APTT). The APTT is lengthened by the presence of endogenous or exogenous inhibitors of thrombin formation, such as therapeutically administered heparin. Thus, agents which neutralize the anti-coagulant effects of heparin will reduce the APTT measured by the test. Citrated human plasma (200 μL) was incubated for 1 minute at 37° C. with either 15 μL of diluent (0.15 M NaCl, 0.1 M Tris-HCl, pH 7.4) or 15 μL of the diluent also containing 25 μg/mL heparin (187 units/mg). Various concentrations (from 0.0 to 56 μg/mL) of rBPI23, rBPI21Δcys, or BPI combination peptides BPI.29 (the DIII homodimer) and BPI.30 (heterodimer DII+DIII) in a volume of 15 μL were added, followed immediately by 100 μL of thrombin reagent (Catalog No. 845-4, Sigma Chemical Co., St. Louis. MO). Clotting time ([…]) was measured using a BBL Fibrometer (Becton Dickenson Microbiology Systems, Cockeysville, Md.). […] FIG. 12e illustrates the results obtained with BPI.30 on a non-log scale.
# [6] = system: zymosan-stimulated NO production by RAW 264.7 cells; assay: Zymosan-stimulated NO production by RAW 264.7 cells; assay type: cell-based, mouse
# Procedure: (§1) An additional LPS neutralization screening assay for BPI functional domain peptides was developed using an assay for NO production in mouse cells treated with LPS (see Lorsbach et al., 1993, J. Biol. Chem. 268: 1908-1913). In this assay, mouse RAW 264.7 cells (ATCC Accession No. TIB71) were treated with bacterial LPS. The cells were incubated in 96-well plates and stimulated for 2 hours with E. coli 0113 LPS or zymosan, in the presence or absence of _-interferon, rLBP, fetal bovine serum (FBS) or normal human serum (NHS), or rBPI21Δcys. After this incubation, the cells were washed with fresh media and incubated overnight in media containing 10% FCS. The NO released from the cells accumulated in the media and spontaneously converted to nitrite. This nitrite was assayed in situ by the Griess reaction, as follows. The nitrite was reacted with the primary amine of an added sulfanilamide and formed a diazonium salt. This salt was then reacted with added naphthylethylenediamine to form a red azo-dyc. The Griess reaction was performed at room temperature in about 10 minutes. The amount of produced NO was estimated from a standard curve of Griess reaction products determined spectrophotometrically as Absorbance at a wavelength of 550 nm.
# [7] = system: Klebsiella pneumoniae 19645; assay: Radial diffusion bactericidal assay, antibiotic resistant Klebsiella pneumoniae 19645; assay type: cell-based
# Procedure: These studies were conducted substantially following the procedures used in Example 2.
# In order to test the bactericidal activity of BPI peptides on antibiotic resistant strains of Klebsiella pneumoniae, the multi-resistant clinically isolated strain 19645 was tested as in Example 2 and above. […] This strain was obtained from the Baxter Microscan® library (Sacramento, Calif.). An overnight culture of Klebsiella pneumoniae 19645 and a non-resistant strain (ATCC 29011) were diluted 1:50 into fresh tryptic soy broth and incubated for 3 hours at 37° C. to attain log phase. The overnight cultures were tested as described in Example 2 and part A above.
# [8] = system: RAW 264.7 cells; assay: LPS neutralization cellular proliferation assay, RAW 264.7 cells; assay type: cell-based, mouse
# Outline: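 Mouse RAW 264.7 cells were primed 24 h with 50U/mL mouse γ-interferon, then exposed about 15 h to E. coli O113 LPS in serum-free RPMI with or without BPI peptides at 25 ng/mL–50 μg/mL. Proliferation was quantified by [^3H]-thymidine uptake, 1 μCi/well, added at 5 h.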
# [9] = LPS binding by tryptophan fluorescence quenching; conditions: for Kd: Stern-Volmer plots
# Excerpt: (§2) The naturally-occurring amino acid tryptophan can emit light (i.e., it fluoresces) having a wavelength between 300 and 400 nm after excitation with light having a wavelength of between about 280 nm and 290 nm, preferably 285 nm. The amount of emitted light produced by such fluorescence is known to be affected by the local environment, including pH and buffer conditions, as well as binding interactions between proteins and other molecules. Some BPI functional domain peptides derived from domains II and III contain tryptophan residues, and tryptophan fluorescence was used to assay binding interactions between the BPI functional domain peptides of the invention and LPS or heparin.
# (§3) Tryptophan fluorescence of the BPI functional domain peptides of the invention was determined in the presence or absence of LPS or heparin using a SPEX Fluorolog fluorimeter. Samples were excited with 285 nm light using a 0.25 nm slitwidth. Emission wavelengths were scanned between 300-400 nm using a 1.25 nm slitwidth. Data were accumulated as the average of three determinations performed over an approximately 5 min time span. Samples were maintained at 25° C. or 37° C. during the course of the experiments using a circulating water bath. Crab endotoxin binding protein (CEBP), a protein wherein the intrinsic fluorescence of tryptophan residues is affected by binding to LPS, was used as a positive control. (See Wainwright et al., 1990, Cellular and Molecular Aspects of Endotoxin Reactions, Nowotny et al., eds., Elsevier Science Publishing B.V., The Netherlands, pp. 315-325).
# (§4) Kd values were determined by Scatchard-type Stern-Volmer plots of the quenching data as the negative inverse of the slope of such plots. Comparing the data for BPI.10, BPI.46 and BPI.47, it is seen that as the Kd decreased (indicating an increase in avidity for LPS), the percent fluorescence quenching increased. The differences between these peptides include replacement of basic and polar amino acid residues with non-polar residues in […] as compared with BPI.10. In contrast, as the Kd of heparin binding decreased, a corresponding increase in the percentage of fluorescence quenching was not detected.
# [10] = Heparin binding by tryptophan fluorescence quenching; conditions: for Kd: Stern-Volmer plots
# Excerpt: as §2, §3, §4
# [11] = Lipid A binding competition with [125I]-rLBP; conditions: for IC50: read-out: IC50 (inhibition of Lipid A binding of radiolabeled rLBP)
# Procedure: A second binding assay was developed, wherein radiolabeled recombinant LPS binding protein ([^125I]-rLBP) was used instead of radiolabeled rBPI23 in competition experiments with BPI functional domain peptides BPI.2, BPI.3, BPI.4, BPI.5, BPI.7, BPI.13, BPI.14, BPI.29, BPI.30 and BPI.48, rBPI, rBPI21Δcys, and rLBP25 were included in these assays as controls. In these experiments, Lipid A was adsorbed to the wells at a concentration of 0.7 μg/mL in methanol. Incubation of radiolabeled rLBP (a total of 650,000 cpm and a specific activity of 3.45 μCi/μg) was performed for 2.5 hr at 37° C. in the presence of BPI peptides in a series of increasing concentrations. IC50 values (i.e., the concentration at which Lipid A binding of radiolabeled rLBP25 is inhibited to one half the value achieved in the absence of the peptide) are shown in accompanying Table XI.
# [12] = system: LPS-stimulated NO production by RAW 264.7 cells; assay: LPS-stimulated NO production by RAW 264.7 cells; assay type: cell-based, mouse
# Procedure: as §1
molecule,measurement,setting,value
GTAALQKELKRIKIPDYSDSFKIKHLGKGH [BPI.14],bactericidal activity (in words),[1],little or no bactericidal activity
same,"pmol added to well to achieve a 30 mm^2 bactericidal zone, E. coli J5",[1],b (no detectable activity up to 5 μg/well)
same,heparin binding capacity (in words),[2],low heparin binding capacity
same,Heparin Capacity,[2],119.3 ng
same,Kd,[2],396 nM
same,"pmol added to well to achieve a 30 mm^2 bactericidal zone, E. coli O111:B4",[3],b (no detectable activity up to 5 μg/well)
same,"pmol added to well to achieve a 30 mm^2 bactericidal zone, S. aureus",[4],b (no detectable activity up to 5 μg/well)
same,effect on the clotting time of heparinized blood (in words),[5],less of a decrease in clotting times
same,inhibition of zymosan-stimulated NO production (in words),[6],not inhibited
IKISGKWKAWKRFLKK [BPI.103],"pmol added to well to achieve a 30 mm^2 bactericidal zone, E. coli J5",[1],165.18 pmol
same,"pmol added to well to achieve a 30 mm^2 bactericidal zone, E. coli O111:B4",[3],415.19 pmol
same,"pmol added to well to achieve a 30 mm^2 bactericidal zone, S. aureus",[4],"4,705.95 pmol"
same,bactericidal activity (in words),[7],active against antibiotic resistant Klebsiella
KWKAQKRFLKKWKAAARFLK [BPI.47],bactericidal activity (in words),[1],highly bactericidal
same,"pmol added to well to achieve a 30 mm^2 bactericidal zone, E. coli J5",[1],97.73 pmol
same,heparin binding capacity (in words),[2],extremely high heparin capacity
same,Heparin Capacity,[2],576.4 ng
same,Kd,[2],1910 nM
same,"pmol added to well to achieve a 30 mm^2 bactericidal zone, E. coli O111:B4",[3],576.74 pmol
same,"pmol added to well to achieve a 30 mm^2 bactericidal zone, S. aureus",[4],"41,213.59 pmol"
same,EC50 (peptide concentration at which the growth inhibitory effect of LPS was reversed by 50%),[8],0.9 ± 0.3 µg/mL
same,IC50 (peptide concentration at which RAW cell growth was inhibited by 50%),[8],9.8 ± 0.1 µg/mL
same,Quenching LPS,[9],41%
same,Kd,[9],115 nM
same,Quenching Heparin,[10],47%
same,Kd,[10],2200 nM
BPI 73 (IKISGKWKAQFRFLK),Quenching LPS,[9],47%
same,Kd,[9],66 nM
same,Quenching Heparin,[10],19%
same,Kd,[10],700 nM
IKISGKAβ-(1-naphthyl)KAAβ-(1-naphthyl)KRFLK (IKISGK[1Nal]KA[1Nal]KRFLK) [BPI.119],"pmol added to well to achieve a 30 mm^2 bactericidal zone, E. coli J5",[1],106.70 pmol
same,"pmol added to well to achieve a 30 mm^2 bactericidal zone, E. coli O111:B4",[3],536.44 pmol
same,"pmol added to well to achieve a 30 mm^2 bactericidal zone, S. aureus",[4],"166,163.83 pmol"
same,bactericidal activity (in words),[7],active against antibiotic resistant Klebsiella
B1,effect on the clotting time of heparinized blood (in words),[5],less of a decrease in clotting times
same,IC50 (inhibition of Lipid A binding of radiolabeled rLBP),[11],0.65 µg/mL
same,IC50,[11],13 nM
same,inhibition of LPS-stimulated NO production (in words),[12],inhibited in a concentration-dependent manner
same,inhibition of zymosan-stimulated NO production (in words),[6],no significant inhibition
B2,effect on the clotting time of heparinized blood (in words),[5],less of a decrease in clotting times
same,IC50 (inhibition of Lipid A binding of radiolabeled rLBP),[11],15 µg/mL
same,IC50,[11],600 nM
same,inhibition of LPS-stimulated NO production (in words),[12],inhibited in a concentration-dependent manner
same,inhibition of zymosan-stimulated NO production (in words),[6],No inhibition
